37 compounds from PubChem BioAssay AID434956 (The Scripps Research Institute Molecular Screening Center, 2010) can be followed below.

Activity calls are given as the source filed them. How the calls were made is not given here. A value given as a limit tells only on which side of the number the result lay.

This experiment deals with IEC-6 cytotoxicity, ATP luminescence. Kind of experiment: IEC-6 epithelial cell viability loss – luminescence, dose response, round 1, cytotoxicity control for KLF5 inhibitor project, late-stage follow-up (AID 434956).
As to `COc1ccc(-n2nc3ccc(NC(=O)C(C)(C)C)cc3n2)cc1`, the IC50 is > 39.8 µM (inactive). For `CC(C)(C)c1ccc(-c2coc(CCC(=O)Nc3ccccn3)n2)cc1` the value was > 39.8 µM (inactive); for `CC(C)(C)c1ccc(-c2noc(CCCC(=O)Nc3ccccc3Cl)n2)cc1`, > 39.8 µM (inactive); for `CC(C)(C)c1ccc(-c2noc(CCC(=O)Nc3ccccc3)n2)cc1`, > 39.8 µM (inactive). As to `Cc1cccc(NC(=O)CCc2nc(-c3ccc(C(C)(C)C)cc3)no2)c1`, the IC50 was > 39.8 µM (inactive). Consider `CC(C)(C)c1ccc(-c2noc(CCC(=O)Nc3ccncc3)n2)cc1`, for which the IC50 is 25.6 µM (inactive). `CCOc1ccc2nc(Nc3nc4ccc(F)cc4s3)sc2c1`: the IC50 is > 39.8 µM (inactive).

On to `CC(C)(C)C(=O)Nc1ccc2nn(-c3ccccc3)nc2c1`, for which the IC50 was > 39.8 µM (inactive).

As to `O=C(COc1ccccc1)Nc1ccc2nn(-c3cccc(Cl)c3)nc2c1`, the IC50 is > 39.8 µM (inactive). Regarding `CC(C)(C)C(=O)Nc1ccc2nn(-c3ccc(F)cc3)nc2c1`, the IC50 was > 39.8 µM (inactive). The result for `Cc1ccc(-n2nc3ccc(NC(=O)COc4ccc(C)c(C)c4)cc3n2)cc1` reads > 39.8 µM (inactive); that for `CCNC(=O)c1sc(NC(=O)c2ccc3ncsc3c2)nc1C`, > 39.8 µM (inactive). For `Cc1nc(NC(=O)c2ccc3ncsc3c2)sc1C(=O)N(C)C`, the IC50 was > 39.8 µM (inactive). The result for `Cc1ccc(OCC(=O)Nc2ccc3nn(-c4cccc(C(F)(F)F)c4)nc3c2)cc1C` reads > 39.8 µM (inactive); that for `CC(C)(C)c1ccc(-c2noc(CCC(=O)Nc3ccc(N4CCOCC4)nc3)n2)cc1`, > 39.8 µM (inactive); that for `CC1(C)CC(=O)c2sc(NC(=O)c3ccc4ncsc4c3)nc2C1`, > 39.8 µM (inactive). The result for `CC(=O)c1sc(NC(=O)c2ccc3ncsc3c2)nc1-c1ccccc1` reads > 39.8 µM (inactive); that for `CS(=O)(=O)c1ccc2nc(Nc3nc4ccc(F)cc4s3)sc2c1`, 19.1 µM (inactive); that for `O=C(Nc1cc2nn(-c3ccccc3)nc2cc1Cl)C1CC1`, > 39.8 µM (inactive). Take `COc1ccc(-n2nc3ccc(NC(=O)C4CCN(S(=O)(=O)c5ccc(Cl)cc5)CC4)cc3n2)cc1`: the IC50 was 31.2 µM (inactive). Consider `CN(C)C(=O)c1ccc2nc(Nc3nc4ccc(F)cc4s3)sc2c1`, for which the IC50 is 15.7 µM (inactive).

As for `O=C(Cc1ccccc1)Nc1cc2nn(-c3ccccc3)nc2cc1Cl`, the IC50 was > 39.8 µM (inactive). For `CC(C)c1ccc2nc(Nc3nc4ccc(F)cc4s3)sc2c1` the value was > 39.8 µM (inactive); for `Cc1ccc(-n2nc3cc(Cl)c(NC(=O)c4cccnc4)cc3n2)cc1`, 17.8 µM (inactive). The result for `CC(C)(C)c1ccc(-c2noc(CCc3nc4ccccc4[nH]3)n2)cc1` reads 31.8 µM (inactive); that for `CC(C)C(=O)Nc1ccc2nn(-c3ccc(Cl)cc3)nc2c1`, > 39.8 µM (inactive). For `CC(=O)Nc1ccc2nc(Nc3nc4ccc(F)cc4s3)sc2c1` the value was 14.7 µM (inactive); for `CC(C)(C)c1ccc(-c2noc(CCC(=O)Nc3ccccn3)n2)cc1`, > 39.8 µM (inactive). Turning to `CC(=O)c1sc(NC(=O)c2ccc3ncsc3c2)nc1C`, the IC50 is > 39.8 µM (inactive).

Regarding `CCNC(=O)c1ccc2nc(Nc3nc4ccc(F)cc4s3)sc2c1`, the IC50 is 14.7 µM (inactive). For `COc1ccc(-n2nc3cc(C)c(NC(=O)C(C)C)cc3n2)cc1`, the IC50 was > 39.8 µM (inactive). The result for `Nc1cc2nn(-c3ccccc3)nc2cc1Cl` reads > 39.8 µM (inactive); that for `O=C(Nc1cc2nn(-c3ccccc3)nc2cc1Cl)C1COc2ccccc2C1` (configuration not stated), > 39.8 µM (inactive).

Turning to `COc1ccc2nc(Nc3nc4ccc(F)cc4s3)sc2c1`, the IC50 was > 39.8 µM (inactive). The result for `CC(NC(=O)c1ccccc1)c1nc(-c2ccc(C(C)(C)C)cc2)no1` (configuration not stated) reads 41.4 µM (inactive); that for `CCOc1ccc(NC(=O)CCc2nc(-c3ccc(C(C)(C)C)cc3)no2)cc1`, > 39.8 µM (inactive); that for `CC(C)(C)c1ccc(-c2noc(CCC(=O)NCc3ccccc3)n2)cc1`, 24.1 µM (inactive).
